Results published in patent publication US4265829A, “Halogenated-naphthalenetriyltris(sulfonylimino)-aryl disulfonic acids and salts thereof” (American Cyanamid Company, priority 1979, dated 1981).
Where a name gives a salt, the structure may show the parent alone.

What was measured:
[1] = test system: serum complement activity; test: Guinea Pig Intraperitoneal Test (GPIP); assay type: in vivo; details: 200 mg./kg. i.p.
Description: An active inhibitor protects C2 from C1 and C4; (ii) Test Code 035 (C3-C9 inhibitor)--This test determines the ability of the late components of human complement (C3-C9) to lyse EAC 142 in the presence of appropriate dilutions of the test compound. An active inhibitor protects EAC 142 from lysis by human C3-C9; (iii) Test Code 036 (C-Shunt inhibitor)--In this test human erythrocytes rendered fragile are lysed in autologous serum via the shunt pathway activated by cobra venom factor in the presence of appropriate dilutions of the test compound. Inhibition of the shunt pathway results in failure of lysis; (iv) Forssman Vasculitis Test--Here, the well known complement dependent lesion, Forssman vasculitis, is produced in guinea pigs by intradermal injection of rabbit anti-Forssman antiserum. The lesion is measured in terms of diameter, edema and hemorrhage and the extent to which a combined index of these is inhibited by prior intraperitoneal injection of the test compound at 200 mg./kg. is then reported, unless otherwise stated; (v) Forssman Shock Test--Lethal shock is produced in guinea pigs by an i.v. injection of anti-Forssman antiserum and the harmonic mean death time of treated guinea pigs is compared with that of simultaneous controls; (vi) Complement Level Reduction Test--In this test, the above dosed guinea pigs, or others, are bled for serum and the complement level is determined in undiluted serum by the capillary tube method of U.S. Pat. No. 3,876,376 and compared to undosed control guinea pigs; (vii) Cap 50 Test--Here, appropriate amounts of the test compound are added to a pool of guinea pig serum in vitro, after which the undiluted serum capillary tube assay referred to above is run. The concentration of compound inhibiting 50% is reported; (viii) Guinea Pig Intraperitoneal Test (GPIP)--Guinea pigs weighing about 300 g. are dosed intraperitoneally (i.p.) with 200 mg./kg. of the test compound dissolved in saline and adjusted to pH 7-8. […] Percent inhibition is calculated by comparison with simultaneous controls. […]

[2] = test system: late components of human complement (C3-C9); test: Test Code 035 (C3-C9 inhibitor); assay type: biochemical; details: serial twofold dilution assay; lysis of EAC 142; higher well number indicates higher activity
Description: (§1) An active inhibitor protects C2 from C1 and C4; (ii) Test Code 035 (C3-C9 inhibitor)--This test determines the ability of the late components of human complement (C3-C9) to lyse EAC 142 in the presence of appropriate dilutions of the test compound. An active inhibitor protects EAC 142 from lysis by human C3-C9; (iii) Test Code 036 (C-Shunt inhibitor)--In this test human erythrocytes rendered fragile are lysed in autologous serum via the shunt pathway activated by cobra venom factor in the presence of appropriate dilutions of the test compound. Inhibition of the shunt pathway results in failure of lysis; (iv) Forssman Vasculitis Test--Here, the well known complement dependent lesion, Forssman vasculitis, is produced in guinea pigs by intradermal injection of rabbit anti-Forssman antiserum. […] Percent inhibition is calculated by comparison with simultaneous controls. […]

activated human C1 = activated human C1 (Homo sapiens, UniProt P09871); test: Test Code 026 (C1 inhibitor); assay type: biochemical; details: serial twofold dilution assay; higher well number indicates higher activity
Description: as §1

[3] = test system: shunt pathway activated by cobra venom factor; test: Test Code 036 (C-Shunt inhibitor); assay type: cell-based; details: serial twofold dilution assay; human erythrocytes in autologous serum; higher well number indicates higher activity
Description: as §1

**Q.** What does the source list for `O=S(=O)(O)c1cc(NS(=O)(=O)c2cc(S(=O)(=O)Nc3cc(S(=O)(=O)O)cc(S(=O)(=O)O)c3)c3c(Cl)ccc(S(=O)(=O)Nc4cc(S(=O)(=O)O)cc(S(=O)(=O)O)c4)c3c2)cc(S(=O)(=O)O)c1` [5,5',5"-[(8-Chloro-1,3,5-napthalenetriyl)tris (sulfonylimino)]-tri-1,3-benzenedisulfonic acid, hexasodium salt]?
**A.** In Vivo Activity (Guinea Pig) % Inhibition Intraperitoneal, 30 minutes ([1]; serum taken 30 minutes after injection): -67%; In Vivo Activity (Guinea Pig) % Inhibition Intraperitoneal, 60 minutes ([1]; serum taken 60 minutes after injection): -72%; In Vivo Activity (Guinea Pig) % Inhibition Intraperitoneal, 120 minutes ([1]; serum taken 120 minutes after injection): -81%; C-Late 035 Wells [2]: +1 Wells; Cl 026 Wells (activated human C1): +7 Wells; Shunt Inhibition 036 Wells [3]: +5 Wells
